From patent US6958318B2, “Recombinant bacterial cells for delivery of PNP to tumor cells” (The UAB Research Foundation, priority 1993, dated 2005)
Several values for one entry are separate records, joined by “and”; a condition that tells them apart may be missing. Identical values can stand only once. Entries after “also recorded” stand apart in the source; their conditions may differ.

Columns and labels:
[1] = target: T1, E. coli PNP (Escherichia coli, UniProt P0ABP8); assay type: biochemical
[2] = target: T2, human PNP (Homo sapiens, UniProt P00491); test: Cleavage of purine analog nucleosides by human PNP (HPLC); assay type: biochemical
T2 sequence (P00491 1-289): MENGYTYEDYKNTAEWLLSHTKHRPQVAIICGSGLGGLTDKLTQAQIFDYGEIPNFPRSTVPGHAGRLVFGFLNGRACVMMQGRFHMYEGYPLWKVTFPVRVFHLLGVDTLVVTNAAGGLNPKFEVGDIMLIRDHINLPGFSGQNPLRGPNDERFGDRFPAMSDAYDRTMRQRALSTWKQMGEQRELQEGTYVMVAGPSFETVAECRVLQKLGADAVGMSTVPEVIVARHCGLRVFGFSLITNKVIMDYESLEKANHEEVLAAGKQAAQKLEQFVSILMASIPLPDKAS

[3] = tested on: tumor cells transduced with the E. coli PNP; test: Killing of PNP-transduced tumor cells in vitro by other prodrugs; assay type: cell-based
Text: In addition to MeP-dR, two other prodrugs suitable for E. coli PNP activation in tumor cells can be applied to the methodology of the present invention. These prodrugs are F-araA and 2-F-2′deoxyadenosine. […] As desired, this dose had no effect on control untransduced, tumor cells.

[4] = target: T1, E. coli PNP
[5] = tested on: wild type murine breast carcinoma cells (16/C cell line); test: Wild-type 16/C tumors in nude mice; assay type: in vivo; conditions: FIG. 6
Protocol: For studies conducted with nu/nu mice, cells obtained from stable cultures of transduced cell lines were injected subcutaneously into the right or left flank of the mice. Mice with visible tumor growth were used for further studies. For the administration of purine prodrug, mice were administered MeP-dR or F-araAMP by IP injection.
Four to five nude (nu/nu) mice per group were inoculated with wild type murine breast carcinoma cells (16/C cell line), or PNP transduced 16/C cells. Mice with established tumors (approximately 100 mm^3) were treated with MeP-dR (100 mg/kg/d IP×3 d) or F-araAMP (100 mg/kg/IP 3 id×3 d).

[6] = tested on: wild-type 16/C tumors; test: Wild-type 16/C tumors in B6C3F1 mice; assay type: in vivo
Protocol: (§1) Transduced 16/C cells were implanted in mice by subcutaneous injection of approximately 10^6 cells harvested from the cultures of stably transduced 16/C cells described above. The mice were examined visibly for tumor growth and those with developing tumors were maintained. To prepare mice for use in the in vivo experiments, the tumors were removed from mice with significant tumor growth and cut into 30-60 mg pieces. One 30-60 mg piece of the tumor was subcutaneously implanted into the subaxillary region of each female B6C3F1 mouse. The tumors were allowed to develop and mice with tumors of 100 mm^3 were used.
Six mice (B6C3F1) per group with established wild type 16/C tumors were treated with an aqueous control solution, MeP-dR (100 mg/kg IP qd×3d) or 2-fluoro-arabinofuranosyladenine monophosphate (F-araAMP) (100 mg/kg IP, […]). The wild type tumors grew rapidly in the presence or absence of either of the prodrugs. […] (Table III, Wild-type 16/C treatment).

[7] = tested on: 16/C-PNP tumors; test: E. coli PNP-transduced 16/C tumors in B6C3F1 mice; assay type: in vivo
Protocol: as §1
Six mice per group with established PNP-transduced 16/C tumors were treated with aqueous control solution, MeP-dR or F-ara AMP, as above. […] (Table III, 16/C-PNP treatment.)

[8] = tested on: D54-PNP tumors; test: E. coli PNP-transduced D54 glioma tumors in nude mice; assay type: in vivo; conditions: previous studies
Protocol: Female athymic nude mice (nu/nu) were implanted sc with 2×10^7 cells of either D54 parental tumor cells (D54-wt) or D54 tumor cells that had been transduced with the E. coli PNP (D54-PNP). After the tumors had grown to approximately 150 mg, they were treated ip with either vehicle or 67 mg/kg of MeP-dR (IP) once a day for 3 days (days 6, 7 and 8 after implantation). The tumor sizes were measured twice a week after treatment.
A confirmation experiment was set up exactly as described above, except that animals were treated with two doses of MeP-dR (45 and 67 mg/kg) (FIGS. 10 and 11). The results of this experiment were similar (Table V). There were 8 of 10 complete regressions in mice bearing the D54-PNP tumors that were treated with 67 mg/kg of MeP-dR. In 4 mice the tumors subsequently returned and grew. There were still 4 of 10 tumor-free survivors 60 days after the treatment had stopped. […] There were 2 of 10 complete regressions and 3 partial responses. […] The delay in the time required to double twice due to treatment with MeP-dR was 5 to 6 days in the non-transduced tumors and greater than 24 days in transduced tumors. In this experiment, the growth rate of the D54-PNP tumors was considerably slower than it was in the first experiment. There was no change in the growth rate of the D54-wt tumors. The reason for the slow growth rate of the D54-PNP tumors in this experiment is not known. […] (In other words, if a tumor was too small to measure, it was not included in the average size). This means that the overall tumor regressions in the D54 PNP group are actually much more pronounced than they appear in FIGS. 8-11.

[9] = tested on: D54 glioma tumors; test: D54 tumors of mixed wild-type and transduced cells (80 to 20); conditions: in vivo
[10] = tested on: PNP transduced tumors; assay type: in vivo; conditions: mouse, in vivo
[11] = tested on: 16/C-PNP cells; test: 16/C-PNP tumors in athymic nude mice; conditions: 100 mg/kg IP 3 id × 3 d; monophosphate
[12] = tested on: T-84 colon carcinoma cells; test: Toxicity of MeP and MeP-dR in untransfected T-84 cells; assay type: cell-based, human
Protocol: T-84 colon carcinoma cells were grown in Dulbecco's modified Eagle medium containing F12 nutrient medium (DMEM/F12) (GIBCO/BRL, Gaithersburg, Md.) in 6 well trays to a density of approximately […] (−20% confluency).
Untransfected T-84 colon carcinoma cells were treated with increasing concentrations of either MeP-dR or MeP. After 5 days the cells were removed from each well and the number of dye excluding cells were determined with the aid of a hemacytometer. Cells were studied both at passage 48 (p. 48) and passage 61 (p. 61). MeP was obtained from Sigma Chemical Company (St. Louis, Mo.). MeP-dR was synthesized by standard methods as described (J. A. Montgomery and K. Howson, J. Med. Chem., 11:48-52 (1968)). The nucleoside and base were dissolved in serum free DMEM/F12 at a concentration of 1 mg/ml and added directly to 1 ml DMEM/F12 with 10% fetal bovine serum at the concentrations described below in order to cover 1-2×10^5 cells/well.
Initial cytopathic effects due to MeP were observed within 24 hours (for example, rounding of cells, with some cells detaching from plate). Viable cells were counted 5 days following addition of drug. […] Trypan blue exclusion was used to confirm viability in cells retaining recognizable structure at all concentrations studied. […] If the toxicity of MeP-dR is due to very low levels of liberation of MeP by human PNP, then combination with selective inhibitors of human PNP could prevent this toxicity.

[13] = tested on: Mel-1 cells; test: Wild type melanoma cell viability; assay type: cell-based, human; conditions: concentrations as low as 0.5 μg/ml, five days
[14] = tested on: CEM cells; test: Toxicity to nondividing CEM cells (1% serum); assay type: cell-based; conditions: 10 μg/ml, non-proliferating cells in 1% serum
Protocol: Results from experiments indicate that MeP is able to kill non-proliferating cells. This distinguishes MeP from most other antitumor agents. In the first experiment, CEM cells were cultured in 1% serum instead of the normal 10% serum for 48 hours. Under these conditions, the cells stop growing and the cell numbers stabilize at 1.5 to 2 times the original cell numbers. Cell growth continues when cells are returned to culture medium containing 10% serum.

[15] = tested on: CF PAC (human pancreatic adenocarcinoma) cells; test: Intratumoral MeP in established human pancreatic tumors in SCID mice; assay type: in vivo; conditions: once a day for three days
Protocol: CF PAC (human pancreatic adenocarcinoma) cells were grown in T75 flasks, trypsinized, washed with PBS and then inoculated subcutaneously into female SCID mice at approximately 2×10^7 cells per animal. The tumors were allowed to grow for several days until they reached the size of approximately […]. At this point, groups of five animals were treated either with vehicle (PBS), PBS containing methyl purine (1.67 mg/kg) or PBS with a higher dose of methyl purine (5.0 mg/kg). Drug or vehicle was injected intratumorally with 3-4 needle passes. Animals were treated with either vehicle or drug one time each day for three days. The growth of the tumors was followed. Measurements in two dimension were used to approximate the overall tumor size. […] For example, purine analogs which are known to have strong cytotoxic activity such as 2-fluoroadenine, 2-fluoroadenosine, 9-[ribosyl]-6-methylpurine, 2-amino-6-chloro-1-deazapurine, 3-deazaguanine, 6-thioguanine, and 6-mercaptopurine can be directly administered to a tumor to cause regression and/or inhibit tumor growth.

[16] = Stability under tissue culture conditions (HPLC of supernatants); conditions: HPLC analysis of supernatants
[17] = tested on: Nc1nc(F)nc2c1ncn2[C@H]1C[C@H](O)[C@@H](CO)O1; test: purified protein, by the assay type
[18] = tested on: OC[C@H]1O[C@@H](n2cnc3c(O)ncnc32)[C@H](O)[C@@H]1O; test: purified protein, by the assay type; conditions: other: enzyme source: Bacteria
[19] = IP for three days, MeP-dR 100, F-araAMP 500 mg/kg/day

T1 sequence (P0ABP8 2-239): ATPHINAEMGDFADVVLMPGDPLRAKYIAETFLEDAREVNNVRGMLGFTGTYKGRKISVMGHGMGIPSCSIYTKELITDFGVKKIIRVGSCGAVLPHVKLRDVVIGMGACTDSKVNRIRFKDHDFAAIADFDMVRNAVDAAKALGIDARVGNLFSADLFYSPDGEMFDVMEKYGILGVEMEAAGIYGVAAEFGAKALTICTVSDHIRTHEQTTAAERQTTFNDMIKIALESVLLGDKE

Nc1nc(F)nc2c1ncn2[C@@H]1O[C@H](CO)[C@@H](O)[C@@H]1O [F-araA, 2-F-arabinofuranosyl-adenine]
Percent of substrate cleaved by E. coli PNP, 100 μM [1]: 3(86) Percent and 5(86) Percent | Substrate quality for bacterial (E. coli) PNP [1]: moderate substrates; also recorded: poorly cleaved | Percent of substrate cleaved by Human PNP, 100 μM [2]: 0(88) Percent and 0(86) Percent | Percent of substrate cleaved by Human PNP, 1 mM [2]: 0(50) Percent and 0(47) Percent | Substrate quality for mammalian (human) PNP [2]: poor substrates; also recorded: not cleaved | Killing of PNP-transduced tumor cells in vitro [3]: high level killing | Killing of transduced versus untransduced tumor cells ([3]; 500 ng/ml): specifically killed transduced, but not untransduced, tumor cells | Km [4]: 510 µM

Nc1nc(F)nc2c1ncn2[C@@H]1O[C@H](COP(=O)(O)O)[C@@H](O)[C@@H]1O [F-araAMP, 2-fluoro-arabinofuranosyladenine monophosphate, reference compound]
Effect on growth of wild-type 16/C tumors [5]: only a small effect on tumor growth | Complete Regressions/Total [6, 19]: 0/6 | Day delay (Treated-control) [6, 19]: 2.7 days | Nonspecific Deaths/Total [6, 19]: 0/6 | Delay in tumor growth, in words ([6]; wild type 16/C): no statistically significant delay in tumor growth | Complete Regressions/Total [7, 19]: 0/6 | Day delay (Treated-control) [7, 19]: 3.3 days | Nonspecific Deaths/Total [7, 19]: 0/6 | Delay in time for three tumor doublings, in words ([7]; p<0.01): statistically significant delay | Days for tumor to double 3 times mean/SD ([7]; tumors that completely regressed not included): 12.1 ± 1.6 days | Activity against D54 glioma tumors expressing the E. coli PNP gene [8]: good activity | Activity against tumors of wild-type and transduced cells at 80 to 20 [9]: less active | Anti-tumor effect on PNP transduced tumors in mice [10]: in vivo regression | Effect of F-araAMP on growth of 16/C tumors expressing E. coli PNP [11]: growth delay for at least ten days; also recorded: significantly inhibited the growth

Cc1ncnc2nc[nH]c12 [MeP, 6-methylpurine, reference compound]
Time to initial cytopathic effects [12]: ≤ 24 h | Effect on cells ([12]; MeP 3.75 μM-75 μM, by day 2): cell lysis and complete loss of cellular architecture | Lethality to Mel-1 cells [13]: ~100% | Cell numbers relative to original number [14]: approximately 25% | Tumor growth ([15]; 1.67 mg/kg intratumorally): intermediate effect upon tumor growth | Tumor growth ([15]; 5.0 mg/kg intratumorally): completely arrested in terms of their growth | Stability under tissue culture conditions [16]: stable

E. coli PNP (Escherichia coli K-12)
Km ([17]; other: enzyme source: Bacteria): 44 µM | Km ([17]; other: enzyme source: D54 cells (transduced)): 38 µM | Km [18]: 46 µM
